Measured values taken from the kinase profiling compilation of Christmann-Franck et al. (2016).

Experiments:
Experiment in all cases: KINOMEscan competition binding
Conditions in all cases: compound 10.0 µM
EIF2AK2 (human) = EIF2AK2 (human) (UniProt P19525)
CLK3 (human) = CLK3 (human) (UniProt P49761)
PHKG2 (human) = PHKG2 (human) (UniProt P15735)
CaMK1 (human) = CaMK1 (human) (UniProt Q14012)
MAPK4 (human) = MAPK4 (human) (UniProt P31152)
MUSK (human) = MUSK (human) (UniProt O15146)
PRKACB (human) = PRKACB (human) (UniProt P22694)
TSSK1B (human) = TSSK1B (human) (UniProt Q9BXA7)
NEK7 (human) = NEK7 (human) (UniProt Q8TDX7)
EPHB1 (human) = EPHB1 (human) (UniProt P54762)
DAPK3 (human) = DAPK3 (human) (UniProt O43293)
PRKACA (human) = PRKACA (human) (UniProt P17612)
HIPK1 (human) = HIPK1 (human) (UniProt Q86Z02)
EPHB3 (human) = EPHB3 (human) (UniProt P54753)
RPS6KA6 KD1 (human) = RPS6KA6 KD1 (human) (UniProt Q9UK32)
ROS1 (human) = ROS1 (human) (UniProt P08922)
SRC (human) = SRC (human) (UniProt P12931)
MAP4K5 (human) = MAP4K5 (human) (UniProt Q9Y4K4)
MAP3K9 (human) = MAP3K9 (human) (UniProt P80192)
MAPK1 (human) = MAPK1 (human) (UniProt P28482)
DDR2 (human) = DDR2 (human) (UniProt Q16832)
CDC42BPB (human) = CDC42BPB (human) (UniProt Q9Y5S2)
MYLK2 (human) = MYLK2 (human) (UniProt Q9H1R3)
NEK6 (human) = NEK6 (human) (UniProt Q9HC98)
[1] = target: JAK1 JH1 catalytic (human) (UniProt P23458)
PIM1 (human) = PIM1 (human) (UniProt P11309)
CSNK1E (human) = CSNK1E (human) (UniProt P49674)
IRAK3 (human) = IRAK3 (human) (UniProt Q9Y616)
TLK1 (human) = TLK1 (human) (UniProt Q9UKI8)
EPHA3 (human) = EPHA3 (human) (UniProt P29320)
AURKA (human) = AURKA (human) (UniProt O14965)
CDK7 (human) = CDK7 (human) (UniProt P50613)
CDKL2 (human) = CDKL2 (human) (UniProt Q92772)
RIOK2 (human) = RIOK2 (human) (UniProt Q9BVS4)
RIPK2 (human) = RIPK2 (human) (UniProt O43353)
BMPR2 (human) = BMPR2 (human) (UniProt Q13873)
MAPK12 (human) = MAPK12 (human) (UniProt P53778)
MARK1 (human) = MARK1 (human) (UniProt Q9P0L2)
PIP4K2B (human) = PIP4K2B (human) (UniProt P78356)
[2] = target: JAK2 JH1 catalytic (human) (UniProt O60674)

Sequence of PIP4K2B (human) (P78356 whole entry, looked up): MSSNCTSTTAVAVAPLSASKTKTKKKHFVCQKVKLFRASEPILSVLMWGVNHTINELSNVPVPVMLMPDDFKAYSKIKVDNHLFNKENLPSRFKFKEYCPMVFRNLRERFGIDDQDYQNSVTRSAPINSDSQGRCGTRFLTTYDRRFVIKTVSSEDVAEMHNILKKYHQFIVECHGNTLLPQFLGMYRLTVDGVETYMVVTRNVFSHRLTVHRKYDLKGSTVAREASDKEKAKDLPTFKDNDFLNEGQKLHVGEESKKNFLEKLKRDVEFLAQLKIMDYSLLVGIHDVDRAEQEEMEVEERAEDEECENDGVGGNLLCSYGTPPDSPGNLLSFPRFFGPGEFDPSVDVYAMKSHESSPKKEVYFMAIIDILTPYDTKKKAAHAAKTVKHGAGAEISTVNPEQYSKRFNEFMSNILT
Sequence of CDC42BPB (human) (Q9Y5S2 whole entry, looked up): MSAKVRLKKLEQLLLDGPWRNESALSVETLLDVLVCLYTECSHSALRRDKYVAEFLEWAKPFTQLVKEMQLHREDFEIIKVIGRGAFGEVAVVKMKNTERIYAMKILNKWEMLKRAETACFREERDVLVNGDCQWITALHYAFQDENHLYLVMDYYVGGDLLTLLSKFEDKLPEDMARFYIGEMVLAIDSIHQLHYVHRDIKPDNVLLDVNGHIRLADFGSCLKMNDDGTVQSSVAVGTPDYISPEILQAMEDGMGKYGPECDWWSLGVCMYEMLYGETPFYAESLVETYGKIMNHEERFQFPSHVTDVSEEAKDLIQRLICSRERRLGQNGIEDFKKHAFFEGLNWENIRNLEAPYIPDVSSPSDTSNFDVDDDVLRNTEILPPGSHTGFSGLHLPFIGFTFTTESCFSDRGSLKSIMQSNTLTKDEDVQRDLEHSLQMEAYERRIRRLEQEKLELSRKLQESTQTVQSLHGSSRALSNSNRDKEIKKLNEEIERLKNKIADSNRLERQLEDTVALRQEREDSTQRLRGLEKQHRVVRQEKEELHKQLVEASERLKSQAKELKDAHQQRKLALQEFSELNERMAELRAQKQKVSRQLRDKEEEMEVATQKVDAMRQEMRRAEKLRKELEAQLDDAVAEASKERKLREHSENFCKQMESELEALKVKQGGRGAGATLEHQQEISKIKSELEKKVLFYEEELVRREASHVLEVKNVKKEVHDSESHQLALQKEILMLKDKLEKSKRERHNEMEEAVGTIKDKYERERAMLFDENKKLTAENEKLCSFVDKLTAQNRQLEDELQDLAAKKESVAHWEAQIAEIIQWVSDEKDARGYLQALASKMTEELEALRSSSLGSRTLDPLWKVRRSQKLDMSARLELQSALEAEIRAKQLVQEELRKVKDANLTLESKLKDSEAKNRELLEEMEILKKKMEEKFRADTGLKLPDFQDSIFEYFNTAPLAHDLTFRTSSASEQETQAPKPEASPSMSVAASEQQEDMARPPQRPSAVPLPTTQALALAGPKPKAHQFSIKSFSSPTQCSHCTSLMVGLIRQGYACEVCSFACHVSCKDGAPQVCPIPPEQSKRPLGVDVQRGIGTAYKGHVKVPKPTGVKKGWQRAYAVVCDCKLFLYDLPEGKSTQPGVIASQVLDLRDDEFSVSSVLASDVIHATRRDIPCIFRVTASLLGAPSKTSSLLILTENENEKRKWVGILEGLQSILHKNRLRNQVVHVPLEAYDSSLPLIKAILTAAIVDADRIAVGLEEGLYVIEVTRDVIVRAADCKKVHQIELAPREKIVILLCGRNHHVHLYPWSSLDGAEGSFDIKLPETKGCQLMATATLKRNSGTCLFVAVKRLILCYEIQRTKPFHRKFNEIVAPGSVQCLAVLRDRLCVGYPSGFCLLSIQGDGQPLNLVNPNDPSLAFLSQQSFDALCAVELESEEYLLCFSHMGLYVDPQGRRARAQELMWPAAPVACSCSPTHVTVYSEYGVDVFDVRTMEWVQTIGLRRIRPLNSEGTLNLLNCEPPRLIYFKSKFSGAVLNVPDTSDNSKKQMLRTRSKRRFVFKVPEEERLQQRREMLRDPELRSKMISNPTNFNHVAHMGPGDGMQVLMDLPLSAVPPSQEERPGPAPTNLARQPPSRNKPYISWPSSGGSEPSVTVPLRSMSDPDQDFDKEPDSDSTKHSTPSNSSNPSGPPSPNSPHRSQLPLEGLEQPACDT
Sequence of DAPK3 (human) (O43293 whole entry, looked up): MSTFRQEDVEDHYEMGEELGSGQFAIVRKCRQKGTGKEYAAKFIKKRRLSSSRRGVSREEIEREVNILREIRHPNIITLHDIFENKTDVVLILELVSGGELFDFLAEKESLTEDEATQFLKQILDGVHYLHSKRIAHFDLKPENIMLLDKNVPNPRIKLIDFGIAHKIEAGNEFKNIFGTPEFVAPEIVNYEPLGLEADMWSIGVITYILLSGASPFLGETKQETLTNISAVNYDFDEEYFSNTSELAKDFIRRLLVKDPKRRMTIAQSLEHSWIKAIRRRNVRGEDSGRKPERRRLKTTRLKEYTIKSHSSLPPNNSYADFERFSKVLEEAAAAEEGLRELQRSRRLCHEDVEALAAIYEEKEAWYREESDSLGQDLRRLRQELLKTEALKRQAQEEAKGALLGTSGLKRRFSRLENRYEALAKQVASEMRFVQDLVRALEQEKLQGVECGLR
Sequence of RIOK2 (human) (Q9BVS4 whole entry, looked up): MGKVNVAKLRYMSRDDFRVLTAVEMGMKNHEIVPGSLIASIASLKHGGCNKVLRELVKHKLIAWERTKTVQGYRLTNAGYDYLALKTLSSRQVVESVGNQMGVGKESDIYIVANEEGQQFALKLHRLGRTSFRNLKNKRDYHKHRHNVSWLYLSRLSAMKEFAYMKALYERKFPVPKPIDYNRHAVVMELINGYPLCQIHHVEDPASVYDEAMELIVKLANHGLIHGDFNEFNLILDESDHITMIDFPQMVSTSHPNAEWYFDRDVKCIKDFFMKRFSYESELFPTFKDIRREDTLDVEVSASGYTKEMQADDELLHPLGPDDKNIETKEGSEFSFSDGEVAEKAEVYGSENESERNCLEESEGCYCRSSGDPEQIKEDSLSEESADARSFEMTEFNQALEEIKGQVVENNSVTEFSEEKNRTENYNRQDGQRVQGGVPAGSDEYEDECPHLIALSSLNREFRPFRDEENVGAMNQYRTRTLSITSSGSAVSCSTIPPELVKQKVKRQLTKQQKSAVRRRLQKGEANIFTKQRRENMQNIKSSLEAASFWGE
Sequence of MARK1 (human) (Q9P0L2 whole entry, looked up): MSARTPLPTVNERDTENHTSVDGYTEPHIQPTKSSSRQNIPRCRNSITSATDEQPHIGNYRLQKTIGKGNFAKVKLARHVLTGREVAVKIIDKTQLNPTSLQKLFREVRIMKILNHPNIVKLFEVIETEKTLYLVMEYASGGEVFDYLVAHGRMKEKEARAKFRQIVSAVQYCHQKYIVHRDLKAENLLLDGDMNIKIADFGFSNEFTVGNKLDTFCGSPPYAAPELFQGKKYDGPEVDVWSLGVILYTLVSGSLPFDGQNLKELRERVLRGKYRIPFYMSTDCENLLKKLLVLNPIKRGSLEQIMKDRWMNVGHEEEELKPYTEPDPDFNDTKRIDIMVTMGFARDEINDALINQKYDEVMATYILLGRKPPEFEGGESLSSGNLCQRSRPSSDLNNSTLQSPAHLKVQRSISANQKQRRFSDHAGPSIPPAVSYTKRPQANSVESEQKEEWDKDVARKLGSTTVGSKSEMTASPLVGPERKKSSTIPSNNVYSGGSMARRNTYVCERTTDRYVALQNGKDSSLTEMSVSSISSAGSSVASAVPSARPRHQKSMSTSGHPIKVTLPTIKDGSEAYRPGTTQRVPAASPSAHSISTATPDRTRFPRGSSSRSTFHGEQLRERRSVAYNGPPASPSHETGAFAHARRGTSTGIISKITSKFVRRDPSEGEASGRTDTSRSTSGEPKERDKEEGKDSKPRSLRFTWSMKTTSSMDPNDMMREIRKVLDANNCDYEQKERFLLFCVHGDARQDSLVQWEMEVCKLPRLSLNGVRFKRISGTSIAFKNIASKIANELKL
Sequence of EPHB1 (human) (P54762 whole entry, looked up): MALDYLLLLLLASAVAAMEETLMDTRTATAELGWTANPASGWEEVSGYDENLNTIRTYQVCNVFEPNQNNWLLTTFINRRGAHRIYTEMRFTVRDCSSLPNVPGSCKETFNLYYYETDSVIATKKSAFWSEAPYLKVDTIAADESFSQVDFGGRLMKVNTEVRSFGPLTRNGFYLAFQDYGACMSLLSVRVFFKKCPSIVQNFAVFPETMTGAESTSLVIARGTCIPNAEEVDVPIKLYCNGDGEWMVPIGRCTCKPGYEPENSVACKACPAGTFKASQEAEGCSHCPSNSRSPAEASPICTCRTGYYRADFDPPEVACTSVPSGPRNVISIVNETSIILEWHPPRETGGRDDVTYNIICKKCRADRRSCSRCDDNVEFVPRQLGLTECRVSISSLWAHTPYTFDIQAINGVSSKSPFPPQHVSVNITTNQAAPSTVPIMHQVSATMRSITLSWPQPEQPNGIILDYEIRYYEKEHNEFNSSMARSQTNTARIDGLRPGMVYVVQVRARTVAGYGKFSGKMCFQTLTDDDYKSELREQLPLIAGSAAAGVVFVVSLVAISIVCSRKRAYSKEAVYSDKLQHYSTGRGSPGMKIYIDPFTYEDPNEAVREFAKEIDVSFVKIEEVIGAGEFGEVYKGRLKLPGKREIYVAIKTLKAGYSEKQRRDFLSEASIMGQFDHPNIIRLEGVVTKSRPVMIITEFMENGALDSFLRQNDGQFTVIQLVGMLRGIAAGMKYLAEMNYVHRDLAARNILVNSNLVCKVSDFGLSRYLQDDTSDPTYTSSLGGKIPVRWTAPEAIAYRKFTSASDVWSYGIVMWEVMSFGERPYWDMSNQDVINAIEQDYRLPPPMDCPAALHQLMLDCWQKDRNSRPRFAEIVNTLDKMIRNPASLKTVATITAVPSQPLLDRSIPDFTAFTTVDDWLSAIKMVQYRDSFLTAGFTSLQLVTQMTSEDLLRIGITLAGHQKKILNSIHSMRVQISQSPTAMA

| Structure (SMILES) | kinase still bound, per cent of control (EIF2AK2 (human)) [%] | kinase still bound, per cent of control (CLK3 (human)) [%] | kinase still bound, per cent of control (PHKG2 (human)) [%] | kinase still bound, per cent of control (CaMK1 (human)) [%] | kinase still bound, per cent of control (MAPK4 (human)) [%] | kinase still bound, per cent of control (MUSK (human)) [%] | kinase still bound, per cent of control (PRKACB (human)) [%] | kinase still bound, per cent of control (TSSK1B (human)) [%] | kinase still bound, per cent of control (NEK7 (human)) [%] | kinase still bound, per cent of control (EPHB1 (human)) [%] | kinase still bound, per cent of control (DAPK3 (human)) [%] | kinase still bound, per cent of control (PRKACA (human)) [%] | kinase still bound, per cent of control (HIPK1 (human)) [%] | kinase still bound, per cent of control (EPHB3 (human)) [%] | kinase still bound, per cent of control (RPS6KA6 KD1 (human)) [%] | kinase still bound, per cent of control (ROS1 (human)) [%] | kinase still bound, per cent of control (SRC (human)) [%] | kinase still bound, per cent of control (MAP4K5 (human)) [%] | kinase still bound, per cent of control (MAP3K9 (human)) [%] | kinase still bound, per cent of control (MAPK1 (human)) [%] | other results |
| --- | --- | --- | --- | --- | --- | --- | --- | --- | --- | --- | --- | --- | --- | --- | --- | --- | --- | --- | --- | --- | --- |
| CCOc1cc2ncc(C#N)c(Nc3ccc(OCc4ccccn4)c(Cl)c3)c2cc1NC(=O)/C=C/CN(C)C | 100 | 86 | 92 | 88 | 100 | 100 | 100 | 100 | 100 | 98 | 91 | 95 | 71 | 100 | 86 | 96 | 82 | 0.85 | 84 | 100 | kinase still bound, per cent of control (DDR2 (human)): 100%; kinase still bound, per cent of control (CDC42BPB (human)): 100%; kinase still bound, per cent of control (MYLK2 (human)): 79%; kinase still bound, per cent of control (NEK6 (human)): 88%; kinase still bound, per cent of control [1]: 83%; kinase still bound, per cent of control (PIM1 (human)): 100%; kinase still bound, per cent of control (CSNK1E (human)): 26%; kinase still bound, per cent of control (IRAK3 (human)): 85%; kinase still bound, per cent of control (TLK1 (human)): 86%; kinase still bound, per cent of control (EPHA3 (human)): 85%; kinase still bound, per cent of control (AURKA (human)): 87%; kinase still bound, per cent of control (CDK7 (human)): 68%; kinase still bound, per cent of control (CDKL2 (human)): 100%; kinase still bound, per cent of control (RIOK2 (human)): 53%; kinase still bound, per cent of control (RIPK2 (human)): 98%; kinase still bound, per cent of control (BMPR2 (human)): 78%; kinase still bound, per cent of control (MAPK12 (human)): 100%; kinase still bound, per cent of control (MARK1 (human)): 94%; kinase still bound, per cent of control (PIP4K2B (human)): 95% |
| Nc1ccc(-c2ccc3ncc4ccc(=O)n(-c5cccc(C(F)(F)F)c5)c4c3c2)cn1 | 70 | 71 | 100 | 82 | 75 | 100 | 85 | 100 | 82 | 100 | 81 | 100 | 79 | 100 | 80 | 82 | 100 | 100 | 100 | 100 | kinase still bound, per cent of control (DDR2 (human)): 99%; kinase still bound, per cent of control (CDC42BPB (human)): 96%; kinase still bound, per cent of control (MYLK2 (human)): 100%; kinase still bound, per cent of control (NEK6 (human)): 92%; kinase still bound, per cent of control [1]: 92%; kinase still bound, per cent of control (PIM1 (human)): 92%; kinase still bound, per cent of control (IRAK3 (human)): 42%; kinase still bound, per cent of control (TLK1 (human)): 90%; kinase still bound, per cent of control (EPHA3 (human)): 86%; kinase still bound, per cent of control (AURKA (human)): 100%; kinase still bound, per cent of control (CDK7 (human)): 51%; kinase still bound, per cent of control [2]: 64%; kinase still bound, per cent of control (CDKL2 (human)): 91%; kinase still bound, per cent of control (RIOK2 (human)): 70%; kinase still bound, per cent of control (RIPK2 (human)): 54%; kinase still bound, per cent of control (BMPR2 (human)): 100%; kinase still bound, per cent of control (MAPK12 (human)): 87%; kinase still bound, per cent of control (MARK1 (human)): 100%; kinase still bound, per cent of control (PIP4K2B (human)): 100% |
| CCCS(=O)(=O)Nc1ccc(F)c(C(=O)c2c[nH]c3ncc(-c4ccc(Cl)cc4)cc23)c1F | 81 | 92 | 100 | 25 | 100 | 99 | 100 | 99 | 100 | 100 | 95 | 100 | 90 | 100 | 82 | 100 | 3.4 | 6.4 | 52 | 100 | kinase still bound, per cent of control (DDR2 (human)): 35%; kinase still bound, per cent of control (CDC42BPB (human)): 79%; kinase still bound, per cent of control (MYLK2 (human)): 18%; kinase still bound, per cent of control (NEK6 (human)): 100%; kinase still bound, per cent of control [1]: 28%; kinase still bound, per cent of control (PIM1 (human)): 95%; kinase still bound, per cent of control (TLK1 (human)): 95%; kinase still bound, per cent of control (EPHA3 (human)): 44%; kinase still bound, per cent of control (AURKA (human)): 81%; kinase still bound, per cent of control (CDK7 (human)): 82%; kinase still bound, per cent of control [2]: 84%; kinase still bound, per cent of control (CDKL2 (human)): 49%; kinase still bound, per cent of control (RIOK2 (human)): 100%; kinase still bound, per cent of control (RIPK2 (human)): 4.3%; kinase still bound, per cent of control (BMPR2 (human)): 57%; kinase still bound, per cent of control (MAPK12 (human)): 93%; kinase still bound, per cent of control (MARK1 (human)): 100%; kinase still bound, per cent of control (PIP4K2B (human)): 100% |
